Test results taken from publication PMC7221793, “Metabolism and Pharmacokinetics of SP-8356, a Novel (1S)-(−)-Verbenone Derivative, in Rats and Dogs and Its Implications in Humans” (Molecules, 2020).
Read-outs that look alike come from different tables or passages of the source.

Key:
[1] = Pharmacokinetic studies in rats (single i.v. and p.o. dose); type: in vivo; conditions: plasma
[2] = In vivo metabolite identification, pooled rat plasma (Q-TOF LC-MS/MS); conditions: i.v. SP-8356 20 mg/kg
Description: (§1) Plasma samples from the i.v. administrations described in Section 4.2 and Section 4.3 were used in this study. Plasma samples pooled at each time point were subjected to sample preparation as described in Section 4.2. The prepared samples were analyzed by Agilent 6530 Q-TOF LC-MS/MS system equipped with dual AJS ESI ion source and Agilent 1200 series HPLC system as described below.
(§2) Chromatographic separation was achieved on an Agilent Eclipse C18 column (2.1 mm × 100 mm, 3.5 µm) by a gradient elution with a mobile phase consisting of 0.1 vol.% formic acid in water (A) and 0.1 vol.% formic acid in acetonitrile (B) at 50 °C: starting with 5 vol.% B for 2 min, ramping to 95 vol.% B over 1 min, maintaining for 3 min. The mobile phase flow rate was kept at 0.45 mL/min throughout the run. The sample injection volume was 5 µL. Ion source parameters were set as follows: capillary voltage, 3500 V; drying gas, 12 L/min and 300 °C; nebulizer gas, 30 psi; sheath gas, 12 L/min and 300 °C. Mass spectra were acquired in negative ion auto MS/MS mode (F, 135 V; CE, 25 eV) with full scan range of m/z (100–1000) and mass scan rate of 8 spectra/s. Metabolites were identified using Agilent MassHunter Metabolite ID software (version B.04.00) (Santa Clara, CA, USA). Chromatograms and mass spectra of the parent and identified metabolites were extracted using Agilent MassHunter Qualitative Analysis software (version B.05.00) (Santa Clara, CA, USA).

[3] = In vivo metabolite identification, pooled dog plasma (Q-TOF LC-MS/MS); conditions: i.v. SP-8356 50 mg/kg
Description: as §1, §2

[4] = Metabolic stability in human liver S9 fraction; type: in vitro ADME; conditions: for t1/2 / half-life at 1 µM: 1 μM
Description: The metabolic stability of SP-8356 was investigated using rat, dog and human liver S9 fractions fortified with cofactors for major drug metabolism. The final reaction mixture contained 1 mg/mL rat, dog or human liver S9 fraction, 1 mM cofactors (NADPH, UDPGA, PAPS, SAM and GSH), 2 mM MgCl2, 25 µg/mL alamethicin and 1 µM SP-8356 in final volume of 200 µL. The metabolic reactions were initiated by adding 10 mM cofactor solution to reaction mixtures preincubated for 5 min at 37 °C. The reactions were terminated at (0, 5, 15, 30 and 60) min by the addition of 200 µL ice-cold acetonitrile containing HSDH (1 µg/mL). The subsequent sample preparation and analytical methods were the same as those described in Section 4.5.
The degradation t1/2 of SP-8356 was calculated using the following Equation:(1) t1/2=0.693/k, where, k was the first-order rate constant calculated by one phase decay nonlinear regression using GraphPad Prism™ 7 (GraphPad Software, La Jolla, CA, USA). CLint was calculated using the following Equation:(2) CLint=k/fu,S9· mL incubation/mg liver S9· mg S9/g liver·g liver/kg body wt.
The scaling factors were (136, 120.7 and 120.7) mg S9 protein/g liver and (40, 32 and 26) g liver/kg body weight for rats, dogs and humans, respectively. For simplicity, the fraction unbound in S9 incubation (fu, S9) was assumed to be one. CLH was predicted using the hepatic well-stirred model, as follows:(3) CLH=QH·fu·CLint/QH+fu·CLint, where, QH was the hepatic blood flow of (55, 30 and 20) mL/min/kg for rats, dogs and humans, respectively. The fraction unbound (fu) was assumed to be one. EH was calculated using the following Equation:(4) EH=CLH/QH.

[5] = test system: mouse xenograft model of triple-negative breast cancer; parameters: method as in PMID 31036845; conditions: in mice ref 10; cited from earlier work
[6] = parameters: method as in PMID 31036845; conditions: mice, intraperitoneal administration ref 10; cited from earlier work
[7] = % versus total AUClast of parent and all detected metabolites
[8] = AR = peak area ratio versus internal standard

Vd ([1]; male, SD (rat), Beagle (dog), iv, range over rats and dogs, read-out: mean volumes of distribution during terminal phase (Vz) and at steady state (Vss)): 1.3 to 1.9 L/kg
AUC(0-inf) ([1]; male, SD, iv, rat, 20 mg/kg): 1030 ± 314 ng·h/mL
AUC(0-t) ([1]; male, SD, iv, rat, 20 mg/kg): 981 ± 314 ng·h/mL
clearance ([1]; male, SD, iv, rat, 20 mg/kg): 350 mL/min/kg
half-life ([1]; male, SD, rat, iv, 20 mg/kg): < 6 min
Vd ([1]; male, SD, rat, iv, 20 mg/kg, read-out: Vss): 1.6 ± 0.5 L/kg
Vd ([1]; male, SD, rat, iv, 20 mg/kg, read-out: Vz): 1.9 ± 0.6 L/kg
t1/2 ([1]; rat, 20 mg/kg): 4.2 ± 1.2 min
AUClast (%) [2, 7]: 26.48%
AUClast (AR∙h) × 10^2 [2, 8]: 36.22 (AR∙h) × 10^2
AUClast (%) [3, 7]: 17.66%
AUClast (AR∙h) × 10^2 [3, 8]: 698.5 (AR∙h) × 10^2
t1/2 ([4]; human liver S9, +Cofactors (NADPH, UDPGA, PAPS, SAM, GSH)): 2.1 min
t1/2 ([4]; human liver S9, −Cofactors): 24.1 min
CLH ([4]; human, +Cofactors, predicted by well-stirred model): 19.6 mL/min/kg
half-life at 1 µM ([4]; human, liver S9 fraction, human liver S9, +Cofactors (NADPH, UDPGA, PAPS, SAM, GSH)): < 3 min
half-life at 1 µM ([4]; human, liver S9 fraction, human liver S9, −Cofactors): < 30 min
CLint scaled at 1 µM ([4]; liver S9 fraction, human liver S9, +Cofactors): 1040 mL/min/kg
SMILES: COc1cc(/C=C/C2=CC(=O)[C@H]3C[C@@H]2C3(C)C)cc(O)c1O [SP-8356, (1S,5R)-4-((E)-3,4-dihydroxy-5-methoxystryryl)-6,6-dimethylbicylco[3.1.1]hept-3-en-2-one]
anti-breast cancer activity [5]: potent anti-breast cancer effect
plasma exposure [6]: Low plasma exposure
